Assay: Antiviral activity against SARS-CoV-2 infected in human Huh-7 cells overexpressing human ACE2 pre-infected with cells for 1 hr followed by compound addition and measured 23 hrs post infection by virus plaque assay
Format: functional, cell-based

Compound	EC50
CC(=O)/C=C/[C@H](C[C@@H]1CCNC1=O)NC(=O)[C@H](CC(C)C)NC(=O)c1ccc(F)cc1	7.63 µM
CC(=O)/C=C/[C@H](C[C@@H]1CCNC1=O)NC(=O)[C@H](CC1CC1)NC(=O)c1ccccc1F	10.3 µM
CC(=O)/C=C/[C@H](C[C@@H]1CCNC1=O)NC(=O)[C@H](CC(C)(C)C)NC(=O)c1ccc(F)cc1	3.5 µM

From ChEMBL document CHEMBL6114939, “Identification of Dual Inhibitors Targeting Main Protease (Mpro) and Cathepsin L as Potential Anti-SARS-CoV-2 Agents” (ACS Med Chem Lett, 2024)
